The series can be described thus: carotenoids in neonatal brain samples. The settings on record: neonatal brain samples studied by the Applicants.

SMILES strings stand for the structures.

With `CC1=CC(O)CC(C)(C)[C@H]1/C=C/C(C)=C/C=C/C(C)=C/C=C/C=C(C)/C=C/C=C(C)/C=C/C1=C(C)C[C@@H](O)CC1(C)C` (stereo partly drawn) [trans-lutein], the “carotenoid occurrence in neonatal brain samples” value was “predominant carotenoid in the majority of neonatal brain samples”.

For `CC(C)=CCC/C(C)=C/C=C/C(C)=C/C=C/C(C)=C/C=C/C=C(C)/C=C/C=C(C)/C=C/C=C(\C)CCC=C(C)C` [lycopene], the “carotenoid occurrence in neonatal brain samples” value is “very few neonatal brain samples are found to contain detectable levels”.
